Where two headings read alike, the source gives them in different places.
Columns and labels:
[1] = system: E. coli (EC D1-209); test: Antibacterial MIC, gram negative; type: cell-based; conditions: CLSI methodology, 35° C., 18-24 hours
[2] = system: S. aureus (SA RN450); test: Antibacterial MIC, gram positive; type: cell-based; conditions: CLSI methodology, 35° C., 18-24 hours
[3] = system: SMN2 mRNA; test: In vitro cell-free splicing assay for inclusion of exon 7; type: biochemical
Procedure: The following example illustrates how tetracycline compound of the invention are active in an in vitro cell-free assay for the inclusion of exon 7 in […] mRNA. SMN1 and SMN2 pre-mRNA were prepared by in vitro transcription using T7 RNA polymerase of minigene templates that include exon 6, a truncated portion of intron 6, exon 7, intron 7 and a portion of exon 8 in the presence of ^32P-UTP. Labeled RNA was purified on a denaturing polyacrylamide gel followed by phenol extraction and ethanol precipitation of the RNA.
In vitro cell-free splicing of SMN1 and SMN2 transcripts was carried out in a 10 μl reaction volume at 30° C. for 3 hours. The reactions contained 10 fmol of labeled pre-mRNA, 30% (3 VI) HeLa cell nuclear extract (in 20 mM HEPES, pH 7.4, 20% (v/v) glycerol, 0.1M KC1, 0.2 mM EDTA), 1.3% (w/v) polyvinyl alcohol, 1.56 mM MgCl2, 32 mM HEPES, pH 7.4, 0.5 mM ATP, 20 mM creatine phosphate and either 2 μl of test compound (in 20 mM HEPES, pH 7.4, 0.1M KC1, 0.2 mM EDTA) or buffer alone. Following incubation, 200 μl of a solution containing 0.3M NaAc and 0.2% SDS was added to the reaction. Proteins were removed by extraction with an equal volume of phenol and RNA was precipitated with 2.5 volumes of ethanol. RNA was resuspended in formamide sample buffer and separated on a 9% urea-denaturing polyacrylamide gel. Quantitation of splicing was based on phosphorimage analysis (Fujix BAS2000 or Fujifilm FLA-5100). In this assay, percentage exon 7 inclusion averages 12% for the unmutated SMN1 mRNA and 4% for the SMN2 mRNA.
The in vitro activities for exon 7 splicing are expressed as the Emax (the maximum percentage exon 7 inclusion observed) and Cmax (the lowest compound concentration at which the maximum inclusion occurs in μM). For Emax, percentage inclusion values of less than 10% are indicated by “*”, values of 10-20% are indicated by “**”, and values greater than 20% are indicated by “***”. For Cmax data, concentrations of greater than 40 μM are indicated by “*”, concentrations between 40 and 10 μM are represented by “**” and concentrations of less than 10 μM are represented by “***”.

[4] = HeLa cell nuclear extract, 30° C., 3 hours

## CN(C)CCCNC(=O)c1ccc(-c2ccc(O)c3c2CC2CC4C(N(C)C)C(O)=C(C(N)=O)C(=O)C4(O)C(O)=C2C3=O)cc1 (stereo not shown) [AA]
[1]
  MIC Gram Negative (EC D1-209): * (weak antibacterial activity (greater than about 8 μg/mL))
[2]
  MIC Gram Positive (SA RN450): ** (modest antibacterial activity (between about 4 and 8 μg/mL))

## CN(C)CCNC(=O)c1ccc(-c2ccc(O)c3c2CC2CC4C(N(C)C)C(O)=C(C(N)=O)C(=O)C4(O)C(O)=C2C3=O)cc1 (stereo not shown) [AD]
[1]
  MIC Gram Negative (EC D1-209): * (weak antibacterial activity (greater than about 8 μg/mL))
[2]
  MIC Gram Positive (SA RN450): *** (Good antibacterial activity (e.g., less than about 4 μg/mL))

## CN(C)C1C(O)=C(C(N)=O)C(=O)C2(O)C(O)=C3C(=O)c4c(O)ccc(-c5cccc(C(N)=O)c5)c4CC3CC12 (stereo not shown) [AE]
[1]
  MIC Gram Negative (EC D1-209): * (weak antibacterial activity (greater than about 8 μg/mL))
[2]
  MIC Gram Positive (SA RN450): *** (Good antibacterial activity (e.g., less than about 4 μg/mL))

## CC(=O)Nc1cccc(-c2ccc(O)c3c2CC2CC4C(N(C)C)C(O)=C(C(N)=O)C(=O)C4(O)C(O)=C2C3=O)c1 (stereo not shown) [AO]
[1]
  MIC Gram Negative (EC D1-209): * (weak antibacterial activity (greater than about 8 μg/mL))
[2]
  MIC Gram Positive (SA RN450): *** (Good antibacterial activity (e.g., less than about 4 μg/mL))

## CN(C)CCNC(=O)c1cccc(-c2ccc(O)c3c2CC2CC4C(N(C)C)C(O)=C(C(N)=O)C(=O)C4(O)C(O)=C2C3=O)c1F (stereo not shown) [AP]
[1]
  MIC Gram Negative (EC D1-209): * (weak antibacterial activity (greater than about 8 μg/mL))
[2]
  MIC Gram Positive (SA RN450): *** (Good antibacterial activity (e.g., less than about 4 μg/mL))

## CN(C)C1C(O)=C(C(N)=O)C(=O)C2(O)C(O)=C3C(=O)c4c(O)ccc(-c5ccccc5)c4CC3CC12 (stereo not shown) [AQ]
[1]
  MIC Gram Negative (EC D1-209): ** (modest antibacterial activity (between about 4 and 8 μg/mL))
[2]
  MIC Gram Positive (SA RN450): *** (Good antibacterial activity (e.g., less than about 4 μg/mL))

## COC(=O)c1ccc(-c2ccc(O)c3c2CC2CC4C(N(C)C)C(O)=C(C(N)=O)C(=O)C4(O)C(O)=C2C3=O)cc1 (stereo not shown) [AR]
[1]
  MIC Gram Negative (EC D1-209): * (weak antibacterial activity (greater than about 8 μg/mL))
[2]
  MIC Gram Positive (SA RN450): *** (Good antibacterial activity (e.g., less than about 4 μg/mL))

## CC(=O)c1cccc(-c2ccc(O)c3c2CC2CC4C(N(C)C)C(O)=C(C(N)=O)C(=O)C4(O)C(O)=C2C3=O)c1 (stereo not shown) [AS]
[1]
  MIC Gram Negative (EC D1-209): * (weak antibacterial activity (greater than about 8 μg/mL))
[2]
  MIC Gram Positive (SA RN450): *** (Good antibacterial activity (e.g., less than about 4 μg/mL))

## COc1ccc(CN(C)C)cc1-c1ccc(O)c2c1CC1CC3C(N(C)C)C(O)=C(C(N)=O)C(=O)C3(O)C(O)=C1C2=O (stereo not shown) [AT]
[1]
  MIC Gram Negative (EC D1-209): *** (Good antibacterial activity (e.g., less than about 4 μg/mL))
[2]
  MIC Gram Positive (SA RN450): *** (Good antibacterial activity (e.g., less than about 4 μg/mL))

## CC(C)OC(=O)c1cccc(-c2ccc(O)c3c2CC2CC4C(N(C)C)C(O)=C(C(N)=O)C(=O)C4(O)C(O)=C2C3=O)c1 (stereo not shown) [AU]
[1]
  MIC Gram Negative (EC D1-209): * (weak antibacterial activity (greater than about 8 μg/mL))
[2]
  MIC Gram Positive (SA RN450): *** (Good antibacterial activity (e.g., less than about 4 μg/mL))

## CN(C)CCC(=O)c1ccc(O)c2c1CC1CC3C(N(C)C)C(O)=C(C(N)=O)C(=O)C3(O)C(O)=C1C2=O (stereo not shown) [AV]
[1]
  MIC Gram Negative (EC D1-209): * (weak antibacterial activity (greater than about 8 μg/mL))
[2]
  MIC Gram Positive (SA RN450): *** (Good antibacterial activity (e.g., less than about 4 μg/mL))

## CN(C)c1cc(-c2ccc(CN3CCN(CCO)CC3)o2)c(O)c2c1C[C@H]1C[C@H]3[C@H](N(C)C)C(O)=C(C(N)=O)C(=O)[C@@]3(O)C(O)=C1C2=O [BA]
[1]
  MIC Gram Negative (EC D1-209): * (weak antibacterial activity (greater than about 8 μg/mL))
[2]
  MIC Gram Positive (SA RN450): *** (Good antibacterial activity (e.g., less than about 4 μg/mL))

## CN1CCN(CC(=O)c2ccc(O)c3c2CC2CC4C(N(C)C)C(O)=C(C(N)=O)C(=O)C4(O)C(O)=C2C3=O)CC1 (stereo not shown) [BB]
[1]
  MIC Gram Negative (EC D1-209): * (weak antibacterial activity (greater than about 8 μg/mL))
[2]
  MIC Gram Positive (SA RN450): *** (Good antibacterial activity (e.g., less than about 4 μg/mL))

## CN(C)CC(=O)Nc1ccc(-c2ccc(O)c3c2CC2CC4C(N(C)C)C(O)=C(C(N)=O)C(=O)C4(O)C(O)=C2C3=O)cc1 (stereo not shown) [BC]
[1]
  MIC Gram Negative (EC D1-209): *** (Good antibacterial activity (e.g., less than about 4 μg/mL))
[2]
  MIC Gram Positive (SA RN450): *** (Good antibacterial activity (e.g., less than about 4 μg/mL))

## COCCNCc1ccc(-c2ccc(O)c3c2CC2CC4C(N(C)C)C(O)=C(C(N)=O)C(=O)C4(O)C(O)=C2C3=O)cc1 (stereo not shown) [BG]
[1]
  MIC Gram Negative (EC D1-209): *** (Good antibacterial activity (e.g., less than about 4 μg/mL))
[2]
  MIC Gram Positive (SA RN450): *** (Good antibacterial activity (e.g., less than about 4 μg/mL))

## CN(C)Cc1ccc(-c2ccc(O)c3c2CC2CC4C(N(C)C)C(O)=C(C(N)=O)C(=O)C4(O)C(O)=C2C3=O)[nH]1 (stereo not shown) [BK]
[1]
  MIC Gram Negative (EC D1-209): * (weak antibacterial activity (greater than about 8 μg/mL))
[2]
  MIC Gram Positive (SA RN450): *** (Good antibacterial activity (e.g., less than about 4 μg/mL))

## CN(C)C1C(O)=C(C(N)=O)C(=O)C2(O)C(O)=C3C(=O)c4c(O)ccc(-c5cccc(C=CC#N)c5)c4CC3CC12 (stereo not shown) [CO]
[3]; [4]
  Cmax (lowest compound concentration at which the maximum exon 7 inclusion occurs): ** (concentrations between 40 and 10 μM)
  Emax (maximum percentage exon 7 inclusion observed): ** (values of 10-20%)

## CN(C)C1C(O)=C(C(N)=O)C(=O)C2(O)C(O)=C3C(=O)c4c(O)ccc(-c5cccc(C(=O)NCCN6CCOCC6)c5)c4CC3CC12 (stereo not shown) [CP]
[3]; [4]
  Cmax (lowest compound concentration at which the maximum exon 7 inclusion occurs): ** (concentrations between 40 and 10 μM)
  Emax (maximum percentage exon 7 inclusion observed): *** (values greater than 20%)

## COCCCNC(=O)c1cccc(-c2ccc(O)c3c2CC2CC4C(N(C)C)C(O)=C(C(N)=O)C(=O)C4(O)C(O)=C2C3=O)c1 (stereo not shown) [CQ]
[3]; [4]
  Cmax (lowest compound concentration at which the maximum exon 7 inclusion occurs): * (concentrations of greater than 40 μM)
  Emax (maximum percentage exon 7 inclusion observed): ** (values of 10-20%)

## CN(C)C1C(O)=C(C(N)=O)C(=O)C2(O)C(O)=C3C(=O)c4c(O)ccc(-c5cccc(C(=O)NCCN6CCCC6)c5)c4CC3CC12 (stereo not shown) [CR]
[3]
  Cmax (lowest compound concentration at which the maximum exon 7 inclusion occurs): ** (key: *: concentrations of greater than 40 μM; **: concentrations between 40 and 10 μM; ***: concentrations of less than 10 μM)
  Emax (maximum percentage exon 7 inclusion observed): *** (key: *: percentage inclusion values of less than 10%; **: values of 10-20%; ***: values greater than 20%)

## CN(C)CCNCc1cccc(-c2ccc(O)c3c2CC2CC4C(N(C)C)C(O)=C(C(N)=O)C(=O)C4(O)C(O)=C2C3=O)c1 (stereo not shown) [CS]
[3]
  Cmax (lowest compound concentration at which the maximum exon 7 inclusion occurs): *** (key: *: concentrations of greater than 40 μM; **: concentrations between 40 and 10 μM; ***: concentrations of less than 10 μM)
  Emax (maximum percentage exon 7 inclusion observed): ** (key: *: percentage inclusion values of less than 10%; **: values of 10-20%; ***: values greater than 20%)

## CN(C)CCN(C)Cc1cccc(-c2ccc(O)c3c2CC2CC4C(N(C)C)C(O)=C(C(N)=O)C(=O)C4(O)C(O)=C2C3=O)c1 (stereo not shown) [CT]
[3]
  Cmax (lowest compound concentration at which the maximum exon 7 inclusion occurs): ** (concentrations between 40 and 10 μM)
  Emax (maximum percentage exon 7 inclusion observed): ** (values of 10-20%)

## CN(C)CCCCNCc1cccc(-c2ccc(O)c3c2CC2CC4C(N(C)C)C(O)=C(C(N)=O)C(=O)C4(O)C(O)=C2C3=O)c1 (stereo not shown) [CV]
[3]; [4]
  Cmax (lowest compound concentration at which the maximum exon 7 inclusion occurs): *** (concentrations of less than 10 μM)
  Emax (maximum percentage exon 7 inclusion observed): ** (values of 10-20%)

## CN(C)CCCCN(C)Cc1cccc(-c2ccc(O)c3c2CC2CC4C(N(C)C)C(O)=C(C(N)=O)C(=O)C4(O)C(O)=C2C3=O)c1 (stereo not shown) [CW]
[3]; [4]
  Cmax (lowest compound concentration at which the maximum exon 7 inclusion occurs): *** (concentrations of less than 10 μM)
  Emax (maximum percentage exon 7 inclusion observed): ** (values of 10-20%)

## CN(C)CCCNCc1cccc(-c2ccc(O)c3c2CC2CC4C(N(C)C)C(O)=C(C(N)=O)C(=O)C4(O)C(O)=C2C3=O)c1 (stereo not shown) [CX]
[3]
  Cmax (lowest compound concentration at which the maximum exon 7 inclusion occurs): *** (key: *: concentrations of greater than 40 μM; **: concentrations between 40 and 10 μM; ***: concentrations of less than 10 μM)
  Emax (maximum percentage exon 7 inclusion observed): ** (key: *: percentage inclusion values of less than 10%; **: values of 10-20%; ***: values greater than 20%)

## CN(C)CCCN(C)Cc1cccc(-c2ccc(O)c3c2C[C@H]2C[C@H]4[C@H](N(C)C)C(O)=C(C(N)=O)C(=O)[C@@]4(O)C(O)=C2C3=O)c1 [Compound CU, (4S,4aS,5aR,12aS)-4-Dimethylamino-7-(3-{[(3-dimethylamino-propyl)-methyl-amino]-methyl}-phenyl)-3,10,12,12a-tetrahydroxy-1,11-dioxo-1,4,4a,5,5a,6,11,12a-octahydro-naphthacene-2-carboxylic Acid Amide]
[3]; [4]
  Cmax (lowest compound concentration at which the maximum exon 7 inclusion occurs): *** (concentrations of less than 10 μM)
  Emax (maximum percentage exon 7 inclusion observed): ** (values of 10-20%)

From patent publication US7935687B2, “Methods for treating spinal muscular atrophy using tetracycline compounds” (Paratek Pharmaceuticals, Inc., priority 2007, dated 2011)
